Measurements reported in patent publication US6448205B1, “Substituted 2-phenylpyridine as herbicide” (BASF Aktiengesellschaft, priority 1996, dated 2002).

COc1cc(-c2ncc([S+](C)[O-])cc2Cl)c(F)cc1Cl (stereo not shown) [No. 6, 3-Chloro-2-(4-chloro-2-fluoro-5-methoxyphenyl)-5-methylsulfinylpyridine]
melting point: 118 °C
